From patent US9326451B1, “Seed pillow for overcoming the limiting factors controlling rangeland reseeding success” (The United States of America, as represented by the …, priority 2012, dated 2016)

How the values were obtained:
bluebunch wheatgrass [1] = tested on: bluebunch wheatgrass; set-up: species or system Pseudoroegneria spicata; settings: in vivo
Excerpt: (§1) In this study, bluebunch wheatgrass was either left untreated, coated with activated carbon, or incorporated into a seed-pillow containing activated carbon. Source of activated carbon used in the study was Nuchar® powdered activated carbon (MWV, Richmond, Va.). Seeds were coated with activated carbon according to U.S. Patent application 2010/0093535. Seed pillows were formed by mixing dough containing by weight 22% activated carbon, 18.6% diatomaceous earth, 57.9% SELVOL-205 solution with 1% solids, and 1.2% seed. Pellets were extruded and cut into 3 mm thick hexagon pellets that were 13 mm in diameter, with each pillow containing eight pure live seeds.
(§2) Bluebunch wheatgrass and cheatgrass were sown in 14×14 cm pots at 500 pure live seeds m-2, and 1000 seeds m-2, respectively. After planting, pots were sprayed with 4, 6, 8, or 12 oz/acre of the pre-emergent herbicide imazapic, or left unsprayed. The study was arranged in a randomized block design with 8 replicates per treatment.

[2] = tested on: cheatgrass (Bromus tectorum L.); test: Example 4: cheatgrass control by imazapic, pot study; assay type: in vivo
Excerpt: as §1, §2

bluebunch wheatgrass [3] = tested on: bluebunch wheatgrass; set-up: species or system Pseudoroegneria spicata; settings: in vivo; remark: listed apart in the source
Excerpt: (§3) The following example illustrates the ability of seed pillows to protect seeds from soil-active herbicide and use of beneficial biostimulants and super-absorbent polymer. In the study, treatments included untreated seed and four seed pillow treatments, including seed incorporated into a pillow containing 1) activated carbon, 2) activated carbon plus biostimulants, 3) activated carbon plus super-absorbent polymer, and 4) activated carbon plus biostimulants and super-absorbent polymer. Pellets were extruded and cut into 3 mm thick hexagon pellets that were 13 mm in diameter, with each pillow containing eight pure live seeds.
(§4) Bluebunch wheatgrass and cheatgrass were sown in 14×14 cm pots at 500 pure live seeds m-2, and 1000 seeds m-2, respectively. After planting, half of the pots in the study were sprayed with 8 oz/acre of the pre-emergent herbicide imazapic, or left unsprayed. The study was arranged in a randomized block design with 8 replicates per treatment.

cheatgrass = test: Example 5: cheatgrass control by imazapic, pot study; assay type: in vivo, Bromus tectorum; settings: 8 oz/acre, pre-emergent spray after planting
Excerpt: as §3, §4

[4] = tested on: 'Anatone' bluebunch wheatgrass; settings: in vivo
Experimental: (§5) Soil was obtained from a Wyoming big sagebrush (Artemisia tridentata Nutt. ssp. wyomingensis [Beetle & A. Young] S. L. Welsh)-steppe community type, located at the Northern Great Basin Experimental Range, 16-km southwest of Riley, Oreg. (43° 32′N, 118° 9′ W). Soil on the site has a silt-loam texture and is classified as a fine-loamy, mixed, frigid Aridic Haploxeroll (Soil Survey Staff 2012). Soil was excavated from a maximum depth of 25-cm, with the top 2-cm of soil and litter discarded to remove existing seeds. Excavated soil was used to fill square 14-cm wide by 14-cm deep growing pots that were placed in a grow-room at the Eastern Oregon Agriculture Research Center, located in Burns, Oreg., USA.
Species used in the study included the native bunchgrass ‘Anatone’ bluebunch wheatgrass and the non-native annual weed downy brome. Bluebunch wheatgrass was chosen because it is often a major component of native plant communities in the sage-steppe ecosystem of western North America, is commonly used in rangeland seeding efforts (see e.g., Ogle et al. 2010 Plant guide for bluebunch wheatgrass (Pseudoroegneria spicata). USDA-Natural Resources Conservation Service. Idaho and Washington Plant Materials Program. 5 p). […]

downy brome = test: Example 6: downy brome control by imazapic, grow-room pot study; assay type: in vivo
Experimental: as §5
Species used in the study included the native bunchgrass ‘Anatone’ bluebunch wheatgrass and the non-native annual weed downy brome. Bluebunch wheatgrass was chosen because it is often a major component of native plant communities in the sage-steppe ecosystem of western North America, is commonly used in rangeland seeding efforts (see e.g., Ogle et al. 2010 Plant guide for bluebunch wheatgrass (Pseudoroegneria spicata). USDA-Natural Resources Conservation Service. Idaho and Washington Plant Materials Program. 5 p). Like many grasses used for restoration, bluebunch wheatgrass is injured by imazapic applied at rates required for downy brome control (see e.g., Shinn and Thill 2004 Weed Technology 18:60-65). Germination potential of bluebunch wheatgrass and downy brome was 92% and 98%, respectively (as tested on blue blotter paper in 130-mm diameter petri dishes, with 25 seeds·dish−1 replicated four times per species).
Bluebunch wheatgrass seeds were untreated, coated with activated carbon, or incorporated into HPPs containing activated carbon. Pots with the sown seeds were sprayed with 0, 70, 105, 140, or 210 g acid equivalent (ae)·ha−1 (0, 4, 6, 8, or 12 oz·acre−1) of the pre-emergent herbicide imazapic (Panoramic 2SL, Alligare LLC, Opelika, Ala.), (3 seed treatments×5 herbicide application rates=15 experimental treatments). The study was arranged in a randomized complete block design with 8 replicates per treatment.
Each pot was seeded with 20 PLS (1000 PLS·m−2) of downy brome, and 10 PLS (500 PLS·m−2) of bluebunch wheatgrass. Two pods were added to each pot designated to receive HPPs. […] Response variables recorded at the conclusion of the study included: 1) plant density, 2) shoot height, and 3) oven dried (65° C. for 72-hrs) aboveground biomass.
Bluebunch wheatgrass and downy brome response data were analyzed separately in SAS (Version 9.3; SAS Institute, Cary, N.C.) using a two-way randomized complete block analysis of variance (ANOVA; Proc Mixed). […] Significance was determined at P<0.05.

[5] = averaged across the study, 47 days

Compound: Cc1cnc(C2=NC(=O)C(C)(C(C)C)N2)c(C(=O)O)c1 (centres unmarked) [imazapic]
- bluebunch wheatgrass growth, untreated seed (FIG. 3B) (bluebunch wheatgrass [1]): growth was arrested
- control of cheatgrass growth ([2]; all application rates (4, 6, 8, 12 oz/acre)): effectively controlled
- cheatgrass growth (FIG. 3C) ([2]; imazapic at 8 oz/acre, bluebunch seed in activated carbon pillow): suppressed
- cheatgrass growth (FIG. 3B) ([2]; soil treated at 10 oz/acre): growth was arrested
- effect on non-treated bluebunch wheatgrass seed (bluebunch wheatgrass [3]): effectively controlled
- control of cheatgrass growth (cheatgrass): effectively controlled
- effect on untreated bluebunch wheatgrass [4]: impaired
- control of downy brome (downy brome; all application rates (70, 105, 140, 210 g ae·ha−1)): effectively controlled
- reduction of downy brome biomass (downy brome; [5]): 140.2 fold
- reduction of downy brome density (downy brome; [5]): 6.6 fold
- reduction of downy brome height (downy brome; [5]): 8.0 fold
